Measured values: the supplement of paper PMC10307832

How the values were obtained:
Experiment in all cases: relative viability (nuclei count vs DMSO), 5 days (fraction); higher = more cells survive
NCI-H838 = system: NCI-H838
In short: (§1)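 Nuclei were stained with Hoechst during a one-step fixation (final 0.05% Triton X-100, 1% formaldehyde, 1 ug/ml Hoechst) carried out 5 days after dosing, then counted on 4× images. The cells, lung cancer lines in 1536-well plates, had been dosed by pin tool the day after seeding with one drug alone or a fixed anchor-drug dose plus five library-drug doses (not always all listed) in √10 steps. Relative viability is the nuclei count in treated wells divided by that in vehicle wells, and each value is the median of duplicate plates.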

NCI-H2087 = system: NCI-H2087
In short: as §1

NCI-H1993 = system: NCI-H1993
In short: as §1

NCI-H2023 = system: NCI-H2023
In short: as §1

EMC-BAC-2 = system: EMC-BAC-2
In short: as §1

NCI-H1395 = system: NCI-H1395
In short: as §1

NCI-H3122 = system: NCI-H3122
In short: as §1

BEN = system: BEN
In short: as §1

NCI-H2126 = system: NCI-H2126
In short: as §1

NCI-H596 = system: NCI-H596
In short: as §1

LOU-NH91 = system: LOU-NH91
In short: as §1

201T = system: 201T
In short: as §1

LCLC-103H = system: LCLC-103H
In short: as §1

HARA = system: HARA
In short: as §1

NCI-H522 = system: NCI-H522
In short: as §1

HCC-44 = system: HCC-44
In short: as §1

NCI-H441 = system: NCI-H441
In short: as §1

NCI-H23 = system: NCI-H23
In short: as §1

NCI-H650 = system: NCI-H650
In short: as §1

NCI-H647 = system: NCI-H647
In short: as §1

NCI-H727 = system: NCI-H727
In short: as §1

NCI-H2347 = system: NCI-H2347
In short: as §1

Compound O=c1cc(N2CCOCC2)oc2c(-c3cccc4c3sc3ccccc34)cccc12 + O=C(c1cc(Cc2n[nH]c(=O)c3ccccc23)ccc1F)N1CCN(C(=O)C2CC2)CC1 [Olaparib] (partner 8 µM) has a relative viability (NCI-H838; first compound 0.01 µM) of 0.753, a relative viability (NCI-H838; first compound 0.03162 µM) of 0.775 and a relative viability (NCI-H838; first compound 0.1 µM) of 0.851. For the same compound, the relative viability (NCI-H838; first compound 0.3162 µM) was 0.769, the relative viability (NCI-H838; first compound 1 µM) was 0.749 and the relative viability (NCI-H2087; first compound 0.01 µM) was 0.544. The relative viability (NCI-H2087; first compound 0.03162 µM) was 0.65, the relative viability (NCI-H2087; first compound 0.1 µM) was 0.672 and the relative viability (NCI-H2087; first compound 0.3162 µM) was 0.552. For the same compound, the relative viability (NCI-H2087; first compound 1 µM) was 0.587, the relative viability (NCI-H1993; first compound 0.01 µM) was 1.08 and the relative viability (NCI-H1993; first compound 0.03162 µM) was 0.958. The relative viability (NCI-H1993; first compound 0.1 µM) was 1.23, the relative viability (NCI-H1993; first compound 0.3162 µM) was 1.04 and the relative viability (NCI-H1993; first compound 1 µM) was 0.984. For the same compound, the relative viability (NCI-H2023; first compound 0.01 µM) was 0.514, the relative viability (NCI-H2023; first compound 0.03162 µM) was 0.471 and the relative viability (NCI-H2023; first compound 0.1 µM) was 0.491. It also gave a relative viability (NCI-H2023; first compound 0.3162 µM) of 0.513, a relative viability (NCI-H2023; first compound 1 µM) of 0.468 and a relative viability (EMC-BAC-2; first compound 0.01 µM) of 0.486. It also gave a relative viability (EMC-BAC-2; first compound 0.03162 µM) of 0.507, a relative viability (EMC-BAC-2; first compound 0.1 µM) of 0.548 and a relative viability (EMC-BAC-2; first compound 0.3162 µM) of 0.412. For the same compound, the relative viability (EMC-BAC-2; first compound 1 µM) was 0.489, the relative viability (NCI-H1395; first compound 0.03162 µM) was 0.457 and the relative viability (NCI-H1395; first compound 0.1 µM) was 0.445. It also gave a relative viability (NCI-H1395; first compound 0.3162 µM) of 0.467, a relative viability (NCI-H1395; first compound 1 µM) of 0.498 and a relative viability (NCI-H3122; first compound 0.01 µM) of 0.604. For the same compound, the relative viability (NCI-H3122; first compound 0.03162 µM) was 0.679, the relative viability (NCI-H3122; first compound 0.1 µM) was 0.566 and the relative viability (NCI-H3122; first compound 0.3162 µM) was 0.606. For the same compound, the relative viability (NCI-H3122; first compound 1 µM) was 0.614, the relative viability (BEN; first compound 0.01 µM) was 1.12 and the relative viability (BEN; first compound 0.03162 µM) was 1.21. It also gave a relative viability (BEN; first compound 0.1 µM) of 1.21, a relative viability (BEN; first compound 0.3162 µM) of 1.08 and a relative viability (BEN; first compound 1 µM) of 1.1. It also gave a relative viability (NCI-H2126; first compound 0.01 µM) of 0.887, a relative viability (NCI-H2126; first compound 0.03162 µM) of 0.91 and a relative viability (NCI-H2126; first compound 0.1 µM) of 0.938. The relative viability (NCI-H2126; first compound 0.3162 µM) was 0.899, the relative viability (NCI-H2126; first compound 1 µM) was 0.918 and the relative viability (NCI-H596; first compound 0.01 µM) was 0.675. It also gave a relative viability (NCI-H596; first compound 0.03162 µM) of 0.628, a relative viability (NCI-H596; first compound 0.1 µM) of 0.735 and a relative viability (NCI-H596; first compound 0.3162 µM) of 0.683. For the same compound, the relative viability (NCI-H596; first compound 1 µM) was 0.694, the relative viability (LOU-NH91; first compound 0.01 µM) was 0.855 and the relative viability (LOU-NH91; first compound 0.03162 µM) was 0.916. The relative viability (LOU-NH91; first compound 0.1 µM) was 0.96, the relative viability (LOU-NH91; first compound 0.3162 µM) was 0.921 and the relative viability (LOU-NH91; first compound 1 µM) was 0.884. It also gave a relative viability (201T; first compound 0.01 µM) of 0.817, a relative viability (201T; first compound 0.03162 µM) of 0.842 and a relative viability (201T; first compound 0.1 µM) of 0.86. For the same compound, the relative viability (201T; first compound 0.3162 µM) was 0.815, the relative viability (201T; first compound 1 µM) was 0.866 and the relative viability (LCLC-103H; first compound 0.01 µM) was 0.718. For the same compound, the relative viability (LCLC-103H; first compound 0.03162 µM) was 0.786, the relative viability (LCLC-103H; first compound 0.1 µM) was 0.771 and the relative viability (LCLC-103H; first compound 0.3162 µM) was 0.707. The relative viability (LCLC-103H; first compound 1 µM) was 0.749, the relative viability (HARA; first compound 0.01 µM) was 0.762 and the relative viability (HARA; first compound 0.03162 µM) was 1.01. It also gave a relative viability (HARA; first compound 0.1 µM) of 0.884, a relative viability (HARA; first compound 0.3162 µM) of 0.972 and a relative viability (HARA; first compound 1 µM) of 0.792. It also gave a relative viability (NCI-H522; first compound 0.01 µM) of 0.59, a relative viability (NCI-H522; first compound 0.03162 µM) of 0.696 and a relative viability (NCI-H522; first compound 0.1 µM) of 0.739. It also gave a relative viability (NCI-H522; first compound 0.3162 µM) of 0.602, a relative viability (NCI-H522; first compound 1 µM) of 0.572 and a relative viability (HCC-44; first compound 0.01 µM) of 1.01. The relative viability (HCC-44; first compound 0.03162 µM) was 0.909, the relative viability (HCC-44; first compound 0.1 µM) was 0.917 and the relative viability (HCC-44; first compound 0.3162 µM) was 0.973. It also gave a relative viability (HCC-44; first compound 1 µM) of 0.987, a relative viability (NCI-H441; first compound 0.01 µM) of 0.485 and a relative viability (NCI-H441; first compound 0.03162 µM) of 0.48. For the same compound, the relative viability (NCI-H441; first compound 0.1 µM) was 0.643, the relative viability (NCI-H441; first compound 0.3162 µM) was 0.631 and the relative viability (NCI-H441; first compound 1 µM) was 0.585. It also gave a relative viability (NCI-H23; first compound 0.01 µM) of 0.399, a relative viability (NCI-H23; first compound 0.03162 µM) of 0.335 and a relative viability (NCI-H23; first compound 0.3162 µM) of 0.344. The relative viability (NCI-H23; first compound 1 µM) was 0.343, the relative viability (NCI-H650; first compound 0.01 µM) was 0.424 and the relative viability (NCI-H650; first compound 0.03162 µM) was 0.38. It also gave a relative viability (NCI-H650; first compound 0.3162 µM) of 0.381, a relative viability (NCI-H650; first compound 1 µM) of 0.4 and a relative viability (NCI-H647; first compound 0.01 µM) of 0.538. For the same compound, the relative viability (NCI-H647; first compound 0.03162 µM) was 0.682, the relative viability (NCI-H647; first compound 0.1 µM) was 0.524 and the relative viability (NCI-H647; first compound 0.3162 µM) was 0.655. It also gave a relative viability (NCI-H647; first compound 1 µM) of 0.592, a relative viability (NCI-H727; first compound 0.01 µM) of 0.692 and a relative viability (NCI-H727; first compound 0.03162 µM) of 0.618. For the same compound, the relative viability (NCI-H727; first compound 0.1 µM) was 0.679, the relative viability (NCI-H727; first compound 0.3162 µM) was 0.711 and the relative viability (NCI-H727; first compound 1 µM) was 0.684. The relative viability (NCI-H2347; first compound 0.01 µM) was 0.597, the relative viability (NCI-H2347; first compound 0.03162 µM) was 0.541 and the relative viability (NCI-H2347; first compound 0.1 µM) was 0.553. For the same compound, the relative viability (NCI-H2347; first compound 0.3162 µM) was 0.621 and the relative viability (NCI-H2347; first compound 1 µM) was 0.551.
